Data as given in patent US20120177701A1, “COMPOSITIONS COMPRISING IMMUNOSTIMULATORY NUCLEIC ACIDS AND RELATED METHODS” (priority 2010, published 2012).

Tests used:
murine splenocytes = assay: Immune cell activation (CD69 expression, FACS) in murine splenocytes; type: cell-based, mouse; details: 20 hours; for activation of immune cell populations (CD69 expression) / immune cell activation compared with R848 and control oligonucleotide: 200 nM DOTAP-complexed; for immune cell activation compared with R848 and control oligonucleotide: R848 1 μM; for NKT cell activation (CD69) / T cell activation (CD69) / granulocyte activation (CD69): compared with R848 1 μM
Method: In addition, upon removal of the supernatant at 20 hours post-incubation, the mouse cells were stained for the following cell markers: GR1, F4/80, CD11c, CD220, CD3, Ly49b, and CD69, and analyzed by FACS. Different immune cell populations were distinguished as follows: macrophages (F4/80^+/GR1^−); plasmacytoid dendritic cells or pDC (CD11c^+/CD220^+); B cells (CD220^+/CD11c^−); NK (CD3^−/Ly49b^+); myeloid DC or mDC ([…]); granulocytes (eosinophils) (GR1^+high/F4/80^−); T cells (CD3^+); and NKT cells (CD3^+/Ly49b^+). All immune cell populations were quantified by the expression of CD69 (am early activation marker).

J774 murine macrophages = assay: TNF-α induction in mouse macrophage cell line J774; type: cell-based
Method: Induction of TNF-α by macrophages is a hallmark of human TLR8 activation (Forsbach et al., 2008, J. Immunol., 180:3729-38; Ghosh et al., 2007, Int. Immunopharmacol., 7:1111-21; Gorden et al., 2005, J. Immunol., 174:1259-68). […] In the following experiment mouse macrophage cell line, J774, has been transfected by test ribonucleotides as described above for HEK-Blue™ hTLR8 cells (with the exception that 2-10×10^4 cells/well were used) and TNF-α was measured in culture supernatants at 16-20 hours after transfection.

human TLR8 = molecular target: T1, human TLR8 (Homo sapiens, UniProt Q9NR97); assay: HEK-Blue hTLR8 NF-kB-inducible SEAP reporter assay (TLR8 activation); type: cell-based
T1 construct: host or cells: HEK293 (HEK-Blue hTLR8) with NF-kB-inducible SEAP reporter
T1 sequence (Q9NR97 27-1041): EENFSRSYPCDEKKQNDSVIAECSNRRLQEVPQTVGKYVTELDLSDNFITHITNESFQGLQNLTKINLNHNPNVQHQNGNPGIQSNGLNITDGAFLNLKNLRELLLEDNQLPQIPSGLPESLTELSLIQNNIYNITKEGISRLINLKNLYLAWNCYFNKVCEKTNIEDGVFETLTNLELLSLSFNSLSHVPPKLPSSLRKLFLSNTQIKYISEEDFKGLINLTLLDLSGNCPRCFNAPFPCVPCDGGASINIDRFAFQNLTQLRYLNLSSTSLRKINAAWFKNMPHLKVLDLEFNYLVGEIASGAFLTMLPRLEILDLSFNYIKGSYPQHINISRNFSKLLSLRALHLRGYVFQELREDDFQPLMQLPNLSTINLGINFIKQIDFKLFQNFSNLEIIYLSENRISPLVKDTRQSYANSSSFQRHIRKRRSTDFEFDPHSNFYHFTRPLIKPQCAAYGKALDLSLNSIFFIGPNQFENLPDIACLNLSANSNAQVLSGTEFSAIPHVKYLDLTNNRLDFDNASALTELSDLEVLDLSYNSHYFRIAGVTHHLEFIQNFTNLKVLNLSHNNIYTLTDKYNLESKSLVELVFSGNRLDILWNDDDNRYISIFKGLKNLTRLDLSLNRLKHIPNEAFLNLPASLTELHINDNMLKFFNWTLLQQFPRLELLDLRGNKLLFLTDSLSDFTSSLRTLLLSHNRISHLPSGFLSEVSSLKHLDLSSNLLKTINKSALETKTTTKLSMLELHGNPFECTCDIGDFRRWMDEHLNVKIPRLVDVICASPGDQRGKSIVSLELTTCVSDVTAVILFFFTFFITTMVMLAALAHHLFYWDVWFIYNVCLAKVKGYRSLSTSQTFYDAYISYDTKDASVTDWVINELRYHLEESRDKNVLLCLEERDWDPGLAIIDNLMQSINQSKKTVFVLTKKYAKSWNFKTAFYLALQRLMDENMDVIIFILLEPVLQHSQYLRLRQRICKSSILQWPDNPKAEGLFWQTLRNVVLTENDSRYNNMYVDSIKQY

Substance | activation of immune cell populations (CD69 expression) (murine splenocytes) | immune cell activation compared with R848 and control oligonucleotide (murine splenocytes) | NKT cell activation (CD69) (murine splenocytes; 200 nM) | T cell activation (CD69) (murine splenocytes; 200 nM) | granulocyte activation (CD69) (murine splenocytes; 200 nM) | macrophage activation (CD69) (murine splenocytes; 200 nM, compared with R-0006) | TNF-α induction, described in words (J774 murine macrophages) | TLR8 activation (fold increase of SEAP induction over the background), described in words (human TLR8) | concentration at which TNF-α induction reached plateau (J774 murine macrophages) [nM] | B-cell activation (CD69) (murine splenocytes; 200 nM, compared with R-0006)
5′-AGAUGUUA--UUGUUU-AAUAUUU-3′ (AGAUGUUAUUGUUUAAUAUUU; phosphorothioate backbone, further chemistry not given here) [SL-0014, phosphorothioated ribonucleotide from SL-0001; dashes signify deleted nucleotides] | induced activation in most of the tested immune cell populations | at least comparable to that generated by treatment with 1 μM of R848, and usually exceeded the effects exhibited by the control oligonucleotide R-0006 | exceeded the activation observed for R848 | exceeded the activation observed for R848 | exceeded the activation observed for R848 | especially higher than the activation observed for R-0006 | – | – | – | –
5′-CUGUGUGAACGAUAGUGCAG-3′ (phosphorothioate, further chemistry not given here) [SL-0019, phosphorothioated ribonucleotide derived from SL-0004] | – | – | – | – | – | – | weaker than the level of induction observed for the other oligonucleotides | markedly weaker | – | –
5′-AUUUAUUUUUAAAUUUUUGUGU-3′ (phosphorothioate, further chemistry not given here) [SL-0023, phosphorothioated ribonucleotide completely contained within SL-0005] | – | – | – | – | – | – | – | even stronger activity than the parental SL-0005 sequence | – | –
5′-GUUUAUCUGUGUG----------CAGUUUAAAC-3′ (GUUUAUCUGUGUGCAGUUUAAAC; phosphorothioate, further chemistry not given here) [SL-0020, dashes signify deleted nucleotides] | – | – | – | – | – | – | most potent | activity similar or exceeding that of SL-0004 | 300 | –
5′-UUAUUUUGUUUUUAAUAUUU-3′ (phosphorothioate backbone, further chemistry not given here) [SL-0012] | induced activation in most of the tested immune cell populations | at least comparable to that generated by treatment with 1 μM of R848, and usually exceeded the effects exhibited by the control oligonucleotide R-0006 | exceeded the activation observed for R848 | exceeded the activation observed for R848 | exceeded the activation observed for R848 | especially higher than the activation observed for R-0006 | – | – | – | –
5′-UUAUUUUGUUUUUAAUAUUUC-3′ (phosphorothioate backbone, further chemistry not given here) [SL-0011] | induced activation in most of the tested immune cell populations | at least comparable to that generated by treatment with 1 μM of R848, and usually exceeded the effects exhibited by the control oligonucleotide R-0006 | exceeded the activation observed for R848 | exceeded the activation observed for R848 | exceeded the activation observed for R848 | especially higher than the activation observed for R-0006 | – | – | – | especially higher than the activation observed for R-0006
